We go through 2 compounds from patent US12378248B2 (The United States of America, as represented by the …, priority 2018, dated 2025).

The target of experiment [1] is kappa (KOR) opioid receptor (Homo sapiens, UniProt P41145). Briefly: Off-target interaction determined by the PDSP. The experiment is classed as binding. The following applies: read-out: Off-target, receptor (h, unless noted) (Ki, μM): KOR.
The target in a further experiment is T1, mA1AR (Mus musculus, UniProt Q60612).
T1 sequence (Q60612 1-326): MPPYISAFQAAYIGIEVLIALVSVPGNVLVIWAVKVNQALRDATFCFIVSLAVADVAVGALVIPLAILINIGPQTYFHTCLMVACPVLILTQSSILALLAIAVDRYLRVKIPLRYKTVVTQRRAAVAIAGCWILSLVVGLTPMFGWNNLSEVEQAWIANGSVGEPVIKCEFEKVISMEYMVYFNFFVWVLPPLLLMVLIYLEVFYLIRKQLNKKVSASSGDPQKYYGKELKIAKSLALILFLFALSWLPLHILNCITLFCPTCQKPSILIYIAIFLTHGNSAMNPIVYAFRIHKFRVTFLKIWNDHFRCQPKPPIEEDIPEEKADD
Briefly: Adenosine receptor binding, mA1AR. Conditions: (m); Ki; read-out: A1AR % inhibition or Ki (converted).

A further experiment deals with T2, mA3AR (Mus musculus, UniProt Q61618).
T2 sequence (Q61618 1-319): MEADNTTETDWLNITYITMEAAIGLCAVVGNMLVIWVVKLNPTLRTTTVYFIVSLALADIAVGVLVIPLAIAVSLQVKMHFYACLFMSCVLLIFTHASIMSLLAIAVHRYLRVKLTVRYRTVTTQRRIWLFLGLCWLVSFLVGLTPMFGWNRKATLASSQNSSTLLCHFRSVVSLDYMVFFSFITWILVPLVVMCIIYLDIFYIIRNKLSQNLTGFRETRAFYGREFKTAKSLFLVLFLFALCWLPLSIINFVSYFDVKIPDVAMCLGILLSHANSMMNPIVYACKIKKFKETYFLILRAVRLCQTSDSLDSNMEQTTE
Briefly: Adenosine receptor binding, mA3AR.

For another experiment, the target named is serotonin receptor 5HT2B (Homo sapiens, UniProt P41595). The experiment is described as follows: Off-target interaction determined by the PDSP. In kind it is binding. The following applies: read-out: Off-target, receptor (h, unless noted) (Ki, μM): 5HT2B.
The next experiment deals with T3, hA1AR (Homo sapiens, UniProt P30542).
T3 construct: expressed in transfected cells; host or cells: CHO
T3 sequence (P30542 1-326): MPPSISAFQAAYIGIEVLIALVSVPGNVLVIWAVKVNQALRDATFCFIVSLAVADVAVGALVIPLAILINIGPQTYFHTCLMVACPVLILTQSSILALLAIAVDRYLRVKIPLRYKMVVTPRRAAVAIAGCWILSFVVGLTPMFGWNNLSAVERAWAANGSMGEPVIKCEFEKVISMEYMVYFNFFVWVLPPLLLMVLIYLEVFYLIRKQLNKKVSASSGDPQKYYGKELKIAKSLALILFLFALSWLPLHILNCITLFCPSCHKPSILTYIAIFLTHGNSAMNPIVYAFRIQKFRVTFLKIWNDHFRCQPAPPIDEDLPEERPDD
The experiment is described as follows: Radioligand binding in membranes of CHO cells expressing hA1AR, [3H]N6-R-phenylisopropyladenosine. The following applies: read-out: A1AR % inhibition or Ki.

The target in a further experiment is T4, hA3AR (Homo sapiens, UniProt P0DMS8).
T4 construct: expressed in transfected cells; host or cells: CHO
T4 sequence (P0DMS8 1-318): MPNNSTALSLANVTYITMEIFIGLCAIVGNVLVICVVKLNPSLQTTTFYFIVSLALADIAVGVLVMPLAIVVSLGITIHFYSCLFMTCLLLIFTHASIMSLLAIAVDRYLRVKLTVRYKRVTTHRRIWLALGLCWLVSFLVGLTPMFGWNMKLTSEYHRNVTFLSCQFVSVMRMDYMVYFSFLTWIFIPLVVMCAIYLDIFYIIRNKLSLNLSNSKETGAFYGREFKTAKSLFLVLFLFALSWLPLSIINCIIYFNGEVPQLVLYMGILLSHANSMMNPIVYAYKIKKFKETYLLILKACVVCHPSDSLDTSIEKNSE
The experiment is described as follows: Radioligand binding in membranes of CHO cells expressing hA3AR. Conditions: read-out: A3AR % inhibition or Ki.

A further experiment deals with mA2AAR (Mus musculus, UniProt Q60613). The experiment is described as follows: Adenosine receptor binding, mA2AAR. The following applies: read-out: A2AAR % inhibition (converted).
The target in another experiment is T5, hA2AAR (Homo sapiens, UniProt P29274).
T5 construct: expressed in transfected cells; host or cells: HEK293
The experiment is described as follows: Radioligand binding in membranes of HEK293 cells expressing hA2AAR. Conditions: read-out: A2AAR % inhibition.

The next experiment has as its target sigma receptor σ2 (UniProt Q5BJF2). The experiment is described as follows: Off-target interaction determined by the PDSP. In kind it is binding, human. Conditions: read-out: Off-target, receptor (h, unless noted) (Ki, μM): σ2.
For another experiment, the target named is adrenergic receptor β3 (Homo sapiens, UniProt P13945). The experiment is described as follows: Off-target interaction determined by the PDSP. The experiment is classed as binding. The following applies: read-out: Off-target, receptor (h, unless noted) (Ki, μM): β3.
In a further experiment the target is histamine receptor H3 (Homo sapiens, UniProt Q9Y5N1). Briefly: Off-target interaction determined by the PDSP. The experiment is classed as binding. Conditions: read-out: Off-target, receptor (h, unless noted) (Ki, μM): H3.
Chain of histamine receptor H3 (Q9Y5N1 whole entry): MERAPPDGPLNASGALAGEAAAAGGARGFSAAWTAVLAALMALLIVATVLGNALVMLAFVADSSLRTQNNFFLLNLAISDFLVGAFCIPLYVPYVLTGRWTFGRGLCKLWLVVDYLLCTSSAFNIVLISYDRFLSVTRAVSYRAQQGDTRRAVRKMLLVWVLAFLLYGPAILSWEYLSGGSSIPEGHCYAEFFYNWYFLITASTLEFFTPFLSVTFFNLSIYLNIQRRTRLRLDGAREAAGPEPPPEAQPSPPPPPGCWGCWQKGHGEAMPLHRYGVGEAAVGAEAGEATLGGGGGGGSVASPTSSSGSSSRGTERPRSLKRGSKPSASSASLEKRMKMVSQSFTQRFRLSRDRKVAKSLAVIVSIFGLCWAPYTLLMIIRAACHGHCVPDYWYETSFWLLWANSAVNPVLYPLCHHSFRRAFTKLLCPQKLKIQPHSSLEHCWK

T5 sequence (P29274 whole entry): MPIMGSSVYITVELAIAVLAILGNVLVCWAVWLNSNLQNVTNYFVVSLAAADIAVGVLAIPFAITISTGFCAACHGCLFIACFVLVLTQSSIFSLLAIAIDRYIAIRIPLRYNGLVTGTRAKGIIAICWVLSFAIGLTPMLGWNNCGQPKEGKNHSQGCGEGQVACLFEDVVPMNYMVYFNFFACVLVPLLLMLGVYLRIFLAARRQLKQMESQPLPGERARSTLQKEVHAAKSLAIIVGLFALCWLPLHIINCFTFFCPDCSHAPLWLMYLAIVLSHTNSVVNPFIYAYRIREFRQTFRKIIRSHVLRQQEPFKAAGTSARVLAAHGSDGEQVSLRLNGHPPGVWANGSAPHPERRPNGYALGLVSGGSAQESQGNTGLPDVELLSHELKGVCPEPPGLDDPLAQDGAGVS
Chain of serotonin receptor 5HT2B (P41595 whole entry): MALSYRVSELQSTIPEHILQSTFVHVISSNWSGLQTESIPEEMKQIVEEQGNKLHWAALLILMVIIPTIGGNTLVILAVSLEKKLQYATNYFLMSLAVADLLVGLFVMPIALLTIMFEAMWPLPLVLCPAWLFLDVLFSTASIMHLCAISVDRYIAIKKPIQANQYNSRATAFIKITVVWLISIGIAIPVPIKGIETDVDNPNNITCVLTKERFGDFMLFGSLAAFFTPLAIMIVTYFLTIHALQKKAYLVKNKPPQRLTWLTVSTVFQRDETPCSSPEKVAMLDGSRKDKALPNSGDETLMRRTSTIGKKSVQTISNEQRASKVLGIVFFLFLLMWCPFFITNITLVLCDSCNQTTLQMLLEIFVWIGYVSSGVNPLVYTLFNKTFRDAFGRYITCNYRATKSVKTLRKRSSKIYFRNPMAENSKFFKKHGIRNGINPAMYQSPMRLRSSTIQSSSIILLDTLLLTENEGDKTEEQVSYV
Chain of adrenergic receptor β3 (P13945 whole entry): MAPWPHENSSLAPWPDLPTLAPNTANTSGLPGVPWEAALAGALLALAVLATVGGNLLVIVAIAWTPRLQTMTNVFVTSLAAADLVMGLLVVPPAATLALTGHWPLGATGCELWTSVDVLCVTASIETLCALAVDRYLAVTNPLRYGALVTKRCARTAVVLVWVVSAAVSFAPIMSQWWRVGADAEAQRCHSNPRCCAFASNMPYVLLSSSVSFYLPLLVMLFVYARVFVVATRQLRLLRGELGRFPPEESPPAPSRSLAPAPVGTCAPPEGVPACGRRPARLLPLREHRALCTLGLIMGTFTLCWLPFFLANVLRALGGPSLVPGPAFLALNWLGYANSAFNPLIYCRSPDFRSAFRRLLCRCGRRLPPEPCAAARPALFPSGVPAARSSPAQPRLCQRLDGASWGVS
Chain of kappa (KOR) opioid receptor (P41145 whole entry): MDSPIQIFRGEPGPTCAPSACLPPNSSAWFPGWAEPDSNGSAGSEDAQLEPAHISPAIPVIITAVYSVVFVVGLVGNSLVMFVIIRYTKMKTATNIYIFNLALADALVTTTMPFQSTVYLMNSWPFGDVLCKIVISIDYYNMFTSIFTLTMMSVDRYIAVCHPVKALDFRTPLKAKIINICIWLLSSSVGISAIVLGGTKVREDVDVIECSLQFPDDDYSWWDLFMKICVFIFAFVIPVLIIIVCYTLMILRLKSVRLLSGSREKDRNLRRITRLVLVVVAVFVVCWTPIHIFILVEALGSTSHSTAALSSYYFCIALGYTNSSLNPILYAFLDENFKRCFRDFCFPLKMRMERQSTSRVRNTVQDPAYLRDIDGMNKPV
Chain of mA2AAR (Q60613 whole entry): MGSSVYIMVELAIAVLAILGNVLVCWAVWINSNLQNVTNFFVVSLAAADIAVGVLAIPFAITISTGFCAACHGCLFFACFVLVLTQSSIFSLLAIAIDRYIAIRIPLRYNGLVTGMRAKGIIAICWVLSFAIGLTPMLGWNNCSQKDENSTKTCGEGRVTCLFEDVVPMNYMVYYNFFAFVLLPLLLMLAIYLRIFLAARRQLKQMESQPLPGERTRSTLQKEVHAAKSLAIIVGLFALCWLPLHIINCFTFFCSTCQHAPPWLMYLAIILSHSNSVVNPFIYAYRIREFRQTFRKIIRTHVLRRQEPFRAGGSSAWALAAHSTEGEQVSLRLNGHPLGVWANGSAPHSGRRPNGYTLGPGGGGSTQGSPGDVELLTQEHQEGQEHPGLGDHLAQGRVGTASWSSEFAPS

One may read the inhibition as the share of the control response that was lost under treatment. As to `O=C(NCCO)[C@@]12C[C@@H]1[C@@H](n1cnc3c(N[C@H]4C[C@H]5CC[C@@H]4C5)nc(Cl)nc31)[C@H](O)[C@@H]2O` [Compound 37, (1S,2R,3S,4R,5S)-4-(6-(((1R,2S,4S)-bicyclo[2.2.1]heptan-2-yl)amino)-2-chloro-9H-purin-9-yl)-2,3-dihydroxy-N-(2-hydroxyethyl)bicyclo[3.1.0]hexane-1-carboxamide], the Ki in experiment [1] was 2.63 µM; on mA1AR it was 1.56 nM; at mA3AR ((m), Ki, read-out: A3AR % inhibition or Ki (converted)), 447 nM; on serotonin receptor 5HT2B, 0.718 µM; on hA1AR ((h), Ki), 17.6 ± 5.3 nM; at hA3AR ((h), Ki) it was 127 ± 29 nM. On hA2AAR ((h), values without % sign (Ki)), the Ki was 5400 nM. For the same compound, the inhibition at 10 µM at mA2AAR is 23%.

For the compound `COC(=O)c1ncn([C@H]2[C@H](O)[C@H](O)[C@]3(CO)C[C@H]23)n1` [Compound 39, Methyl 1-((1S,2R,3S,4R,5R)-3,4-dihydroxy-5-(hydroxymethyl)bicyclo[3.1.0]hexan-2-yl)-1H-1,2,4-triazole-3-carboxylate], the Ki at mA1AR was 2990 ± 80 nM; at sigma receptor σ2, 1.72 µM; on adrenergic receptor β3 it was 1.42 µM; on histamine receptor H3, 4.52 µM. Further, the inhibition at 10 µM on mA3AR (read-out: A3AR % inhibition or Ki) amounted to 15 ± 2%; at hA1AR, 6 ± 4%; at hA3AR, 22 ± 4%; on hA2AAR it was 14 ± 5%.
